Residues, ends and D or L forms follow the SMILES beside them.

As usually defined, the Kd is the concentration at which binding is half-saturated.

Experiment [1] relates to DocSTm. Nature of the experiment: Differential scanning fluorimetry (thermal stabilisation of Doc). It is filed as binding, S. Typhimurium. The conditions noted are these: for melting temperature shift ΔTm: DSF, DocSTm 5 μM, analyte 50 μM, Tm with analyte minus Tm of free DocSTm (42.9 ± 0.9 °C), SYPRO Orange, 20 mM K2HPO4, 50 mM (NH4)2SO4, pH 8.0, triplicate; for Average Tm / Tm: DocSTm 5 µM + 50 µM binder; for Average Tm: average of 3 replicates. The essentials:
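Thermal shift of 5 μM Doc in 20 mM K2HPO4, 50 mM (NH4)2SO4, pH 8.0 with 3× SYPRO Orange, heated from 25 to 95 °C in a qPCR instrument, in triplicate. Melting temperatures from Boltzmann sigmoid fits of the transition region.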

Experiment [2] concerns the target DocSTm. Nature of the experiment: Surface plasmon resonance binding to immobilised Doc. Also on record: species or system S. Typhimurium. As to conditions: for koff × 10^-6 / kon × 10^6: 1:1 kinetic fit, mean ± SD of at least 3 replicates; for kon × 10^6: single-cycle kinetics (multicycle for PhdSTm1-73); for Half-life of the complex: t1/2 = ln2 / koff; for gain of affinity compared to peptide 1: SPR Kd relative to peptide 1. The essentials: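 Doc captured on an NTA chip at 22 °C in 10 mM HEPES, 500 mM NaCl, 50 μM EDTA, 0.005% TWEEN 20, pH 8.0. Analytes injected as 80 s pulses at 30 μL/min in multicycle or single-cycle kinetics.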
Background: In SPR one partner is held on a chip, and binding of the other changes the refractive index at the surface.

Experiment [3] concerns DocSTm. Nature of the experiment: Dot blot phosphorylation assay (EF-Tu phosphorylation by Doc). It is filed as biochemical, S. Typhimurium. As to conditions: DocSTm 1 μM, EF-TuSTm 3 μM, ATP 1 mM; for inhibition of EF-TuSTm phosphorylation by DocSTm (in words): α-pThr, inhibitor 10 μM to 5 nM (3-fold dilutions), 16 h at RT. How it is done:
Samples were prepared to a final volume of 10 μL. […] Samples were incubated for 16 h at RT and subsequently spotted on a nitrocellulose membrane. Phosphorylated EF-Tu was detected by immunodecoration using a rabbit monoclonal antiphosphothreonine antibody (Abcam, ab218195) at 1:2000 dilution (1 h at 4 °C), followed by incubation with a goat antirabbit IgG (H+L) HRP conjugate antibody (Advansta) at 1:10 000 dilution (1 h at RT). Chemiluminescence was developed using the HRP Luminata kit (Merck, WBLUR0100) and captured by an ImageQuant LAS4000 Western blot imaging system (Cytiva).

Experiment [4] concerns S. Typhimurium (14028) Δphd-doc::Km strains coexpressing DocSTm. Nature of the experiment: Growth rescue experiment in S. Typhimurium. It is filed as cell-based. The conditions noted are these: coexpression of DocSTm (pBAD33, arabinose) and Phd construct (pCA24N, basal expression); OD600 over time, M9 minimal medium; average of three independent experiments. As for the experimental part:
The cotransformations above were also performed with an empty pBAD33 plasmid, as a control for the absence of DocSTm expression.
For the growth rescue experiment, overnight (1% tryptone, 0.5% yeast extract, 0.5% NaCl, 1% glucose, 100 μg/mL of carbenicillin, and 34 μg/mL of chloramphenicol) cultures of the generated S. Typhimurium strains were diluted to an OD600 of approximately 0.006 into fresh M9 minimal medium supplemented with 0.5% or 1% arabinose, 0.4% glycerol, 0.4% casamino acids, 100 μg/mL of carbenicillin, and 34 μg/mL of chloramphenicol. Cell growth at a given time was monitored at OD600 with a Genesys 140 Visible Spectrophotometer (Thermo Scientific).

The mark [5] stands for this setting: SPR, kinetic fit, KD calculated from mean koff and kon, SD propagated, 22 °C, pH 8.0.

As to `CC[C@H](C)[C@H](NC(=O)[C@H](C)NC(=O)[C@H](C)NC(=O)[C@H](Cc1ccccc1)NC(=O)[C@H](CCC(=O)O)NC(=O)[C@H](CC(=O)O)NC(=O)[C@H](CC(=O)O)NC(=O)[C@H](CCSC)NC(=O)[C@H](Cc1c[nH]c2ccccc12)NC(C)=O)C(=O)N[C@@H](CCSC)C(=O)N[C@@H](C)C(=O)N[C@H](C(=O)N[C@@H](Cc1c[nH]cn1)C(=O)NCC(=O)N[C@@H](CC(N)=O)C(=O)N[C@@H](CCC(=O)O)C(=O)N[C@@H](CC(C)C)C(=O)N[C@@H](CCCNC(=N)N)C(=O)N[C@@H](CCC(=O)O)C(=O)N[C@@H](CC(C)C)C(=O)N[C@@H](C)C(=O)N[C@@H](CC(=O)O)C(=O)N[C@@H](CCCCN)C(=O)O)C(C)C` [peptide 1] (Ac-WMDDEFAAIMAVHGNELRELADK-OH), the “melting temperature shift ΔTm” value in experiment [1] is 28.8 ± 0.9 °C. Moreover, the “Average Tm” value in experiment [1] stood at 71.7 ± 0.1 °C. Besides, the results for the Tm in experiment [1] (replicate 1), in experiment [1] (replicate 2) and in experiment [1] (replicate 3) were 71.8 °C, 71.5 °C and 71.6 °C, respectively. For the same compound, the Kd amounted to 0.0734 nM in experiment [2] (SPR kinetic fit, replicate 1); 0.0838 nM in experiment [2] (SPR kinetic fit, replicate 2); 0.0591 nM in experiment [2] (SPR kinetic fit, replicate 3); 0.0819 nM in experiment [2] (SPR kinetic fit, replicate 4). In addition, the “koff × 10^-6” value in experiment [2] (SPR, 22 °C, pH 8.0) was 91 ± 11 ×10^-6 s-1. Also, the “kon × 10^6” value in experiment [2] (SPR, 22 °C, pH 8.0) is given as 1.250 ± 0.259 ×10^6 M-1 s-1. In experiment [2], the “Half-life of the complex” value is reported as 2.1 ± 0.3 h. In addition, in experiment [3], the “concentration at which EF-TuSTm phosphorylation is fully inhibited” value was at least 1 µM. Also, the “inhibition of EF-TuSTm phosphorylation by DocSTm (in words)” value (shortened to “inhibition of EF-TuSTm phosphorylation”) in experiment [3] is “comparable inhibition of the kinase activity”. Besides, in experiment [4], the “rescue of Salmonella growth from DocSTm-induced growth inhibition (in words)” value is “only rescued growth after a delay and longer incubation times of 16–18 h”.
In the case of `CC[C@H](C)[C@H](NC(=O)[C@H](C)NC(=O)[C@H](C)NC(=O)[C@H](Cc1ccccc1)NC(=O)[C@H](CCC(=O)O)NC(=O)[C@H](CC(=O)O)NC(=O)[C@H](C)NC(=O)[C@H](CCSC)NC(=O)[C@H](Cc1c[nH]c2ccccc12)NC(C)=O)C(=O)N[C@@H](CCSC)C(=O)N[C@@H](C)C(=O)N[C@H](C(=O)N[C@@H](Cc1c[nH]cn1)C(=O)NCC(=O)N[C@@H](CC(N)=O)C(=O)N[C@@H](CCC(=O)O)C(=O)N[C@@H](CC(C)C)C(=O)N[C@@H](CCCNC(=N)N)C(=O)N[C@@H](CCC(=O)O)C(=O)N[C@@H](CC(C)C)C(=O)N[C@@H](C)C(=O)N[C@@H](CC(=O)O)C(=O)N[C@@H](CCCCN)C(=O)O)C(C)C` [peptide 3] (Ac-WMADEFAAIMAVHGNELRELADK-OH; C-terminus assumed), the “melting temperature shift ΔTm” value in experiment [1] was determined as 25.6 ± 0.9 °C. The “Average Tm” value in experiment [1] turned out to be 68.5 ± 0.3 °C. The Tm in experiment [1] (replicate 1) was determined as 68.3 °C; in experiment [1] (replicate 2), 68.4 °C; in experiment [1] (replicate 3) it was 68.8 °C. The “improvement in koff compared with 1” value in experiment [2] (SPR) is given as about 1.5 fold. Besides, the “improvement in kon compared with 1” value in experiment [2] (SPR) is about 4 fold. Also, the “gain of affinity compared to peptide 1” value in experiment [2] was “greater than 5 fold”. Further, the equilibrium dissociation constant (Kd) in experiment [2] (SPR kinetic fit, replicate 1) is 0.0121 nM; in experiment [2] (SPR kinetic fit, replicate 2) it was 0.0166 nM; in experiment [2] (SPR kinetic fit, replicate 3), 0.00992 nM; in experiment [2] (setting [5]), 0.013 nM. In experiment [2] (SPR, 22 °C, pH 8.0), the “koff × 10^-6” value is reported as 65 ± 18 ×10^-6 s-1. The “kon × 10^6” value in experiment [2] (SPR, 22 °C, pH 8.0) is reported as 5.073 ± 0.369 ×10^6 M-1 s-1. In addition, in experiment [2], the “Half-life of the complex” value is reported as 2.9 ± 0.8 h. For the same compound, the “inhibition of EF-TuSTm phosphorylation” value in experiment [3] is “inhibited DocSTm at similar concentrations to peptide 1”. Further, the “rescue of Salmonella growth from DocSTm-induced growth inhibition (in words)” value in experiment [4] is “a faster recovery was achieved”.
Turning to `CC[C@H](C)[C@H](NC(=O)[C@H](C)NC(=O)[C@H](C)NC(=O)[C@H](Cc1ccccc1)NC(=O)[C@H](CCC(=O)O)NC(=O)[C@H](C)NC(=O)[C@H](CC(=O)O)NC(=O)[C@H](CCSC)NC(=O)[C@H](Cc1c[nH]c2ccccc12)NC(C)=O)C(=O)N[C@@H](CCSC)C(=O)N[C@@H](C)C(=O)N[C@H](C(=O)N[C@@H](Cc1c[nH]cn1)C(=O)NCC(=O)N[C@@H](CC(N)=O)C(=O)N[C@@H](CCC(=O)O)C(=O)N[C@@H](CC(C)C)C(=O)N[C@@H](CCCNC(=N)N)C(=O)N[C@@H](CCC(=O)O)C(=O)N[C@@H](CC(C)C)C(=O)N[C@@H](C)C(=O)N[C@@H](CC(=O)O)C(=O)N[C@@H](CCCCN)C(=O)O)C(C)C` [peptide 4] (Ac-WMDAEFAAIMAVHGNELRELADK-OH; C-terminus assumed), the “melting temperature shift ΔTm” value in experiment [1] amounted to 26.2 ± 0.9 °C. Also, the “Average Tm” value in experiment [1] stood at 69.1 ± 0.2 °C. The Tm was determined as 69.0 °C in experiment [1] (replicate 1), 69.3 °C in experiment [1] (replicate 2) and 69.1 °C in experiment [1] (replicate 3). For the same compound, in experiment [2] (SPR), the “improvement in koff compared with 1” value is about 1.5 fold. In addition, the “improvement in kon compared with 1” value in experiment [2] (SPR) is reported as about 4 fold. Besides, in experiment [2], the “gain of affinity compared to peptide 1” value was “greater than 5 fold”. For the same compound, the Kd in experiment [2] (SPR kinetic fit, replicate 1) is 0.0128 nM; in experiment [2] (SPR kinetic fit, replicate 2) it was 0.0166 nM; in experiment [2] (SPR kinetic fit, replicate 3), 0.0101 nM; in experiment [2] (setting [5]) it was 0.013 nM. For the same compound, in experiment [2] (SPR, 22 °C, pH 8.0), the “koff × 10^-6” value is reported as 62 ± 17 ×10^-6 s-1. Also, the “kon × 10^6” value in experiment [2] (SPR, 22 °C, pH 8.0) was 4.733 ± 0.155 ×10^6 M-1 s-1. Moreover, in experiment [2], the “Half-life of the complex” value was 3.1 ± 0.8 h. The “inhibition of EF-TuSTm phosphorylation” value in experiment [3] is listed as “inhibited DocSTm at similar concentrations to peptide 1”. Also, in experiment [4], the “rescue of Salmonella growth from DocSTm-induced growth inhibition (in words)” value is recorded as “restored bacterial growth following similar kinetics as the wild-type sequence”.
As to `CC[C@H](C)[C@H](NC(=O)[C@H](C)NC(=O)[C@H](C)NC(=O)[C@H](Cc1ccccc1)NC(=O)[C@H](CCC(=O)O)NC(=O)[C@H](CC(=O)O)NC(=O)[C@H](CC(=O)O)NC(=O)[C@H](CCSC)NC(=O)[C@H](Cc1c[nH]c2ccccc12)NC(C)=O)C(=O)N[C@@H](CCSC)C(=O)N[C@@H](C)C(=O)N[C@H](C(=O)N[C@@H](Cc1c[nH]cn1)C(=O)NCC(=O)N[C@@H](CC(N)=O)C(=O)N[C@@H](CCC(=O)O)C(=O)N[C@@H](C)C(=O)N[C@@H](CCCNC(=N)N)C(=O)N[C@@H](CCC(=O)O)C(=O)N[C@@H](CC(C)C)C(=O)N[C@@H](C)C(=O)N[C@@H](CC(=O)O)C(=O)N[C@@H](CCCCN)C(=O)O)C(C)C` [peptide 14] (Ac-WMDDEFAAIMAVHGNEARELADK-OH; C-terminus assumed), the “melting temperature shift ΔTm” value in experiment [1] was 14.3 ± 0.9 °C. For the same compound, in experiment [1], the “Average Tm” value was found to be 57.2 ± 0.2 °C. The Tm in experiment [1] (replicate 1) was determined as 57.4 °C; in experiment [1] (replicate 2), 57.2 °C; in experiment [1] (replicate 3), 57.0 °C. Also, the “fold decrease in affinity (given as decrease/loss in Kd) compared with peptide 1” value in experiment [2] (SPR Kd relative to wild-type peptide 1) was about 300 fold. The Kd in experiment [2] (SPR multicycle, steady-state fit, replicate 1) worked out at 25 ± 0.5 nM; in experiment [2] (SPR multicycle, steady-state fit, replicate 2), 23.9 ± 0.94 nM; in experiment [2] (SPR multicycle, steady-state fit, replicate 3), 15.4 ± 2.13 nM; in experiment [2] (SPR, multicycle kinetics, steady-state 1:1 fit, mean ± SD of 3 replicates), 21.4 ± 5.25 nM. In experiment [4], the “rescue of Salmonella growth from DocSTm-induced growth inhibition (in words)” value was “unable to rescue growth”.
For the compound “PhdSTm: full-length wild-type Phd antitoxin protein of S. Typhimurium”, in experiment [2] (listed as PhdSTm1-73), the “Half-life of the complex” value is 6.7 ± 1.4 h. Also, the “inhibition of EF-TuSTm phosphorylation” value in experiment [3] was “no phosphorylation was detected”. The “rescue of Salmonella growth from DocSTm-induced growth inhibition (in words)” value in experiment [4] is on record as “prevented Doc-induced growth inhibition”.
